The source of these data is ChEMBL document CHEMBL1136405, “Acyclic N-(azacycloalkyl)bisindolylmaleimides: isozyme selective inhibitors of PKCbeta” (Bioorg Med Chem Lett, 2003).

pIC50: −log10 of the molar value.

The target of one test is Protein kinase C (PKC). Put plainly: Inhibition of purified rat brain protein kinase C (RB-PKC).
Test [1] addresses Protein kinase C gamma type (Homo sapiens, UniProt P05129). Put plainly: Inhibition of Protein kinase C gamma.
The nature of test [2]: Inhibition of purified rat brain casein kinase II.
Test [3] addresses T1, Protein kinase C beta type (Homo sapiens, UniProt P05771). Put plainly: Inhibition of Protein kinase C beta 2.
Test [4] concerns the target T2, Protein kinase C zeta type (Homo sapiens, UniProt Q05513).
T2 sequence (Q05513 whole entry): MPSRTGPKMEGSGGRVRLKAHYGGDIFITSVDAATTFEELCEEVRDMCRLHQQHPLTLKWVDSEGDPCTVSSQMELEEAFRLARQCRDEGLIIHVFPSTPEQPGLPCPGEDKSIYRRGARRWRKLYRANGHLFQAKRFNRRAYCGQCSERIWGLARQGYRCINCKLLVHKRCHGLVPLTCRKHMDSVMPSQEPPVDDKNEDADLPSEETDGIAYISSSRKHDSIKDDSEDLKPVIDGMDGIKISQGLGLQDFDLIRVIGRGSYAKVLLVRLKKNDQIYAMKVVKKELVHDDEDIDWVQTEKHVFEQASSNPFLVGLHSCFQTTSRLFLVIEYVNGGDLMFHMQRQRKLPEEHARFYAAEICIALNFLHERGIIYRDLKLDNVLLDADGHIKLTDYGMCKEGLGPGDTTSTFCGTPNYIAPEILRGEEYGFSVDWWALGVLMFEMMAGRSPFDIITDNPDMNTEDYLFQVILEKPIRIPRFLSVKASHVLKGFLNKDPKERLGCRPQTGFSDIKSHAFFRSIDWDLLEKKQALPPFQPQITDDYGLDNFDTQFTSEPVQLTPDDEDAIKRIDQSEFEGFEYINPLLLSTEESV
Briefly: Inhibition of Protein kinase C zeta.

Test [5] concerns the target T1, Protein kinase C beta type. Put plainly: Inhibition of Protein kinase C beta 1.
Test [6] concerns the target Protein kinase C delta type (Homo sapiens, UniProt Q05655). Put plainly: Inhibition of Protein kinase C delta.
Test [7] in a line: Inhibition of cAMP dependent protein kinase catalytic subunit of bovine heart. On the set-up: species or system Bos taurus.
Test [8] deals with Protein kinase C eta type (Homo sapiens, UniProt P24723). Put plainly: Inhibition of Protein kinase C eta.
Sequence of Protein kinase C eta type (P24723 whole entry): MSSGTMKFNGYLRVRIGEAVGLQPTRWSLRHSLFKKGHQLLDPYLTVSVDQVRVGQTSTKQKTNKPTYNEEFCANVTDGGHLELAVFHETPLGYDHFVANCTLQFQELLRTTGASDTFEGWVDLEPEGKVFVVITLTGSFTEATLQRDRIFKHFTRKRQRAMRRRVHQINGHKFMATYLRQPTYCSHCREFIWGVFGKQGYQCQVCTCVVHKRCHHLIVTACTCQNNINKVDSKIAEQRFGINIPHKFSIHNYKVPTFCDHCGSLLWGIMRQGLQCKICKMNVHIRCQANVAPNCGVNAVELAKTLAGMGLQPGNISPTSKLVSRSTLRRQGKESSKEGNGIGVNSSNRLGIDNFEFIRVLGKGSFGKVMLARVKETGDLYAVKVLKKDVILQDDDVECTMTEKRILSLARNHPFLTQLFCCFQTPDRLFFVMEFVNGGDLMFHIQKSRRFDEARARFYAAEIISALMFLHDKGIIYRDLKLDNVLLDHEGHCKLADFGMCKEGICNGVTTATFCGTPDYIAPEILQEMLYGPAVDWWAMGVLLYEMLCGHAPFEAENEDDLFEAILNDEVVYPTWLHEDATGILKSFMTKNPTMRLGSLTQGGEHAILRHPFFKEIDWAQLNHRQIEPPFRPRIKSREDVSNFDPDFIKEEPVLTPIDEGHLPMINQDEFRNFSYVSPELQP
The target of test [9] is Protein kinase C alpha type (Homo sapiens, UniProt P17252). Briefly: Inhibition of Protein kinase C alpha.
Test [10] has as its target T3, Protein kinase C epsilon type (Homo sapiens, UniProt Q02156).
T3 sequence (Q02156 whole entry): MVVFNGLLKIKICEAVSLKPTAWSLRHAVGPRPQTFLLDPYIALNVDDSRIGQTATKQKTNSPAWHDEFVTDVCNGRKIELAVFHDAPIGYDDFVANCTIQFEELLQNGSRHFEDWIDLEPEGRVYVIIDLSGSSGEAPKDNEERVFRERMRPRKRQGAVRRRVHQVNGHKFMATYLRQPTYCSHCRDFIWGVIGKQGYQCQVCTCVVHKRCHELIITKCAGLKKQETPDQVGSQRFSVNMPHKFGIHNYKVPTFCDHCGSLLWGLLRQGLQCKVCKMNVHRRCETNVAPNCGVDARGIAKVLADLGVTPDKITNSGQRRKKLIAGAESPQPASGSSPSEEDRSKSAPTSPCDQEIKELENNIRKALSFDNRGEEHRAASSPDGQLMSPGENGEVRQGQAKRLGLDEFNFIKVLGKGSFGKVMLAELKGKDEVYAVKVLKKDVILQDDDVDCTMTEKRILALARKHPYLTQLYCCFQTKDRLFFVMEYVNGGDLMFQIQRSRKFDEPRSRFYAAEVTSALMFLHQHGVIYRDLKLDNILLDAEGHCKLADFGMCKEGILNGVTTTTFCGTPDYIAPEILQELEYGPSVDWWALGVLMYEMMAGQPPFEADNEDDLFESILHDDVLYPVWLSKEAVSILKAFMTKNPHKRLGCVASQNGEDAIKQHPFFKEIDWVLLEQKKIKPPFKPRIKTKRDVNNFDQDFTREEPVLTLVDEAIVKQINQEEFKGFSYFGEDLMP
Briefly: Inhibition of Protein kinase C epsilon.

A further test concerns the target CaM kinase II (Homo sapiens, UniProt Q13557+Q13555+Q13554+Q9UQM7). Briefly: Inhibition of purified mammalian brain [Ca(2+)]/Calmodulin dependent kinase.
Test [11] concerns the target Proto-oncogene tyrosine-protein kinase Src (Homo sapiens, UniProt P12931). Briefly: Inhibition of Src protein tyrosine kinase.

Sequence of Proto-oncogene tyrosine-protein kinase Src (P12931 2-536 limits assumed): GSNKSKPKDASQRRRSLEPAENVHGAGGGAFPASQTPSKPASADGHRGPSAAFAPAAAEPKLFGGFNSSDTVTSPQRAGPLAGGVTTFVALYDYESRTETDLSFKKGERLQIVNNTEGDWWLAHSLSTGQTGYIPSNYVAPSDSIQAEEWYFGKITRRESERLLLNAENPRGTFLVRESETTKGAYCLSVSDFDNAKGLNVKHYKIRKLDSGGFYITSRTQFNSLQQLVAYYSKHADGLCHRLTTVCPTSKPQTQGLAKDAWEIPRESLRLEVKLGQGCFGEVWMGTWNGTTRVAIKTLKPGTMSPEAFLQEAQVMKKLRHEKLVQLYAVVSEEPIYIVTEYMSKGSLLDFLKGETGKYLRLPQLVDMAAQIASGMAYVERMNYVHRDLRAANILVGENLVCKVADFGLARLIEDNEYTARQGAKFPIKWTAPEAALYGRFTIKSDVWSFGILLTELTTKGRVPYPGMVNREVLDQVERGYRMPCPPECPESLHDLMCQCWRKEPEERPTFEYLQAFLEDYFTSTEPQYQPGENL
T1 sequence (P05771 whole entry): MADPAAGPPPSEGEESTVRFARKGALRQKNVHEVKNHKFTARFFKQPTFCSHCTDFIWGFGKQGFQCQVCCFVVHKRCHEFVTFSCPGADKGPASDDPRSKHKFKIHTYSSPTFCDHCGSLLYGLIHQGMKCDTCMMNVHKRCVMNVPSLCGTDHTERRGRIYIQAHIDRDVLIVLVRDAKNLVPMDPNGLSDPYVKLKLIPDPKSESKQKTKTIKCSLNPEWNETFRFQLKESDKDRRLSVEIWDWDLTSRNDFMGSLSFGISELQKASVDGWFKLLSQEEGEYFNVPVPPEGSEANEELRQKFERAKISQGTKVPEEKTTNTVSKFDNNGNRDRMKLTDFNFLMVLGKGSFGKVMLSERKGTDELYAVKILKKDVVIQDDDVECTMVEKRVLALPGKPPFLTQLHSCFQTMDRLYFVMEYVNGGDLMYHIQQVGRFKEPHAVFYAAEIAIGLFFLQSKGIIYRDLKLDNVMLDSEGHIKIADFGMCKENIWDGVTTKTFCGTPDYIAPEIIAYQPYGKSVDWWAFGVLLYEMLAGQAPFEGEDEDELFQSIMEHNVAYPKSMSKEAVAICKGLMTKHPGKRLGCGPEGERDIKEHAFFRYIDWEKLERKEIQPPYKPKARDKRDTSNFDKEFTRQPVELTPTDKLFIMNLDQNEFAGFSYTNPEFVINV
Sequence of Protein kinase C delta type (Q05655 whole entry): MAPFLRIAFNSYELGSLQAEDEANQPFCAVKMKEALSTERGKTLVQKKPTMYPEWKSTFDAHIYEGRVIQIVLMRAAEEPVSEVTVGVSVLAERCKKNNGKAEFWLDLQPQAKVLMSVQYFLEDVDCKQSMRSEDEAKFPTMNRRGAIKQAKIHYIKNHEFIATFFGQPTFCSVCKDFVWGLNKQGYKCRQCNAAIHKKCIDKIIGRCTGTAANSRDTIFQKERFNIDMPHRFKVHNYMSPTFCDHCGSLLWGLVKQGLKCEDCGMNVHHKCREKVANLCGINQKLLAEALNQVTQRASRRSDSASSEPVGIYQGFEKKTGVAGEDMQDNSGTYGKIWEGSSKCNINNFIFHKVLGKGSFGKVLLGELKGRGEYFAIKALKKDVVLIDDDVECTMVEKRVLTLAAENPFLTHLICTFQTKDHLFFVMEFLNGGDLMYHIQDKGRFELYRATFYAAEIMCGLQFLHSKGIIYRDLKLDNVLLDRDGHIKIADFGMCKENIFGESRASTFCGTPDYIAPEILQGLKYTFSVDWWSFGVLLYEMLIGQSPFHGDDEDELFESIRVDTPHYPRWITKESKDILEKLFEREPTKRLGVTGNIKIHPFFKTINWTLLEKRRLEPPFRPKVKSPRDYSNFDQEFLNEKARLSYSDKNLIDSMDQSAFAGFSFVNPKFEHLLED

Molecule `Cn1cc(C2=C(c3cn(C4CCN(Cc5ccccc5)C4)c4ccccc34)C(=O)NC2=O)c2ccccc21` (stereo unspecified) had an IC50 at Protein kinase C (PKC) of 2.8 µM. In addition, the pIC50 in test [1] is 5.46; in test [2] it was less than 4.00; in test [3], 7.62; in test [4] it was less than 4.00; in test [5] it was 7.66; in [6], 5.38. The pIC50 in [7] is less than 4.00; in test [8], 7.38; in test [9], 5.42; in test [10], 5.03.
As for `Cn1cc(C2=C(c3cn(C4CCN(C(=O)OC(C)(C)C)CC4)c4ccccc34)C(=O)NC2=O)c2ccccc21`, the pIC50 is 5.30 in [1]; 7.10 in test [3]; less than 4.00 in test [4]; 6.70 in test [5]; 5.15 in test [6]; 5.10 in test [8]. In addition, the pIC50 in test [9] and in test [10] was 5.22 in each case.
Regarding `Cn1cc(C2=C(c3cn(C4CCN(Cc5ccccc5)CC4)c4ccccc34)C(=O)NC2=O)c2ccccc21`, the IC50 on Protein kinase C (PKC) was 4 µM; against CaM kinase II, more than 40 µM. The pIC50 in test [2] was less than 4.40; in [4] it was less than 4.00; in test [7], less than 4.00; in test [11], less than 4.00.
As to `CC(C)N1CCC(n2cc(C3=C(c4cn(C)c5ccccc45)C(=O)NC3=O)c3ccccc32)CC1`, the IC50 on Protein kinase C (PKC) stood at 0.25 µM. Moreover, the pIC50 in test [2] and in test [7] was less than 4.00 throughout.
Take `CN(C)C[C@@H]1CCn2cc(c3ccccc32)C2=C(C(=O)NC2=O)c2cn(c3ccccc23)CCO1`: the pIC50 in [2] and in test [7] was less than 4.00 throughout.
Turning to `CN1CCC(n2cc(C3=C(c4c[nH]c5ccccc45)C(=O)NC3=O)c3ccccc32)CC1`, the values for the IC50 against Protein kinase C (PKC) and on CaM kinase II were 0.2 µM and 3 µM, respectively. In addition, the pIC50 in test [2] is 4.04; in [7], 5.40; in [11], 4.08.
For `CN1CCC(n2cc(C3=C(c4cn(C)c5ccccc45)C(=O)NC3=O)c3ccccc32)CC1`, at Protein kinase C (PKC), the IC50 is 0.2 µM. The figures for the pIC50 in test [2], in [7] and in [11] were less than 4.00, 5.15 and less than 4.00, respectively.
Turning to `CCN1CCC(n2cc(C3=C(c4cn(C)c5ccccc45)C(=O)NC3=O)c3ccccc32)CC1`, the pIC50 is less than 4.00 in [2], 5.10 in [7] and 4.96 in [11].
Take `Cn1cc(C2=C(c3cn(C4CCN(CC5CC5)CC4)c4ccccc34)C(=O)NC2=O)c2ccccc21`: the IC50 on Protein kinase C (PKC) stood at 0.3 µM. Further, the pIC50 was less than 4.00 in test [2], less than 4.00 in [7] and 4.17 in test [11].
As to `Cn1cc(C2=C(c3cn(C4CCNCC4)c4ccccc34)C(=O)NC2=O)c2ccccc21`, the pIC50 in test [2] is less than 4.00; in [7], 6.00.
Regarding `Cn1cc(C2=C(c3cn(C4CCN(Cc5ccccn5)CC4)c4ccccc34)C(=O)NC2=O)c2ccccc21` [ENZASTAURIN], the IC50 against Protein kinase C (PKC) stood at 0.7 µM. Moreover, the pIC50 in test [2] and in test [7] was less than 4.00 throughout.
